IC50 data for three compounds are collected here from US20170217946A1, “AMINO-SUBSTITUTED ISOXAZOLES” (Bayer Pharma Aktiengesellschaft, priority 2014, published 2017).

A word on the IC50: it is the concentration that gives 50% inhibition.

The test system of this assay is spindle assembly checkpoint (phosphorylated histone H3 on serine 10) in HeLa cells. In words: SAC-Formation - Nocodazole-Induced Assay. It is filed as cell-based. The note with it: Homo sapiens, nocodazole 0.1 μg/ml, 24 h incubation. The text has this:
The spindle assembly checkpoint assures the proper segregation of chromosomes during mitosis. Upon entry into mitosis, chromosomes begin to condensate which is accompanied by the phosphorylation of histone H3 on serine 10. Dephosphorylation of histone H3 on serine 10 begins in anaphase and ends at early telophase. Accordingly, phosphorylation of histone H3 on serine 10 can be utilized as a marker of cells in mitosis. Nocodazole is a microtubule destabilizing substance. Paclitaxel is a microtubule stabilizing compound. Thus, nocodazole as well as paclitaxel interfere with microtubule dynamics and mobilize the spindle assembly checkpoint. […] The mitotic breakthrough can be detected by the decrease of cells with phosphorylation of histone H3 on serine 10. This decline is used as a marker to determine the capability of compounds of the present invention to induce a mitotic breakthrough. The typical morphological alteration of nuclei with a prematurely completed mitosis after SAC-inhibition can be monitored via image analysis routines supporting those findings.
The nocodazole and paclitaxel variations were used to focus on compounds that are capable of inhibiting a SAC induced by both microtubule destabilization as well as microtubule stabilization. […]
Cultivated cells of the human cervical tumor cell line HeLa (ATCC CCL-2) were plated at a density of 1000 cells/well in a 1536-well microtiter plate in 2 μl PAA Ham's F12 Medium supplemented with 1% (v/v) glutamine, 1% (v/v) penicillin, 1% (v/v) streptomycin and 10% (v/v) fetal calf serum. […] Images were acquired with a PERKIN ELMER OPERA™ High-Content Analysis reader. Images were analyzed with image analysis software MetaXpress™ from Molecular devices utilizing the Mitotic Index application module. In this assay both labels HOECHST 33342 and phosphorylated Histone H3 on serine 10 were measured. […] The raw assay data were further analyzed by four-parametric hill equation using Genedata's Assay Analyzer and Condoseo software.
As for `Cc1noc(Nc2cnc(C(F)(F)F)cn2)c1C(=O)Nc1ccc(OC2CCN(CCC(F)(F)F)CC2)nc1` [Example 1a, 3-Methyl-5-{[5-(trifluoromethyl)pyrazin-2-yl]amino}-N-(6-{[1-(3,3,3-trifluoropropyl)-piperidin-4-yl]oxy}pyridin-3-yl)-1,2-oxazole-4-carboxamide], the IC50 was found to be 430 nM.

Turning to `Cc1noc(Nc2cnc(C(=O)NC3CCN(CC(F)F)CC3)cn2)c1C(=O)Nc1ccc(F)c(F)c1` [Example 1b, N-[1-(2,2-Difluoroethyl)piperidin-4-yl]-5-({4-[(3,4-difluorophenyl)carbamoyl]-3-methyl-1,2-oxazol-5-yl}amino)pyrazine-2-carboxamide], the half-maximal inhibitory concentration (IC50) was 620 nM.

Consider `Cc1noc(Nc2cnc(C(F)(F)F)cn2)c1C(=O)Nc1ccc(F)c(F)c1` [Example 1c, N-(3,4-Difluorophenyl)-3-methyl-5-{[5-(trifluoromethyl)pyrazin-2-yl]amino}-1,2-oxazole-4-carboxamide], for which the IC50 was found to be 170 nM.
